How the values were obtained:
Type in all cases: cell-based
[1] = tested on: neuron prepared from Lymnaea stagnails; assay: Electrical signal of a neuron under glutamate, average of standard deviations (Example 1); settings: 0, 0.1, 0.3, 1, 3, 10, 30, or 100 μM glutamate; standard deviation of 100 milliseconds; FIG. 6
From the text: FIG. 2 is a schematic diagram showing a configuration of an apparatus and steps used in a signal extracting method according to Example 1 of the present invention. The apparatus comprises a measurement section 101 for continuously measuring action potential generated from a neuron; a computer 100 incorporating a hard disk storing a program for executing a standard deviation calculation step 102 for calculating a standard deviation of measured data every predetermined time, an average calculation step 105 for calculating an average of standard deviation values output every predetermined time, and an activity calculation step 108 for calculating an ion channel activity from an average output from the average calculation step 105; and a data displaying section 110, such as CRT, for displaying the ion channel activity.
The apparatus was used to measure an electrical signal of a neuron which was actually prepared from Lymnaea stagnails where 0, 0.1, 0.3, 1, 3, 10, 30, or 100 μM glutamate was applied to the neuron. The resultant measured data spanning […] was divided into pieces of subdata spanning 100 milliseconds, for each of which a standard deviation was in turn calculated. The average of the standard deviations was plotted in FIG. 6. […]

[2] = tested on: neuron prepared from Lymnaea stagnails; assay: Extracellular recording of a neuron before and after glutamate, normal distribution of standard deviations (Example 2); settings: after application of 50 μM glutamate, before application 0.488
From the text: FIG. 3 is a schematic diagram showing a configuration of an apparatus and steps used in a signal extracting method according to Example 2 of the present invention. The apparatus comprises a measurement section 101 for continuously measuring action potential generated from a neuron; a computer 100 incorporating a hard disk storing a program for executing a standard deviation calculation step 102 for calculating a standard deviation of measured data every predetermined time, a normal distribution approximation step 103 for dividing a standard deviation group consisting of a plurality of resultant standard deviations into a plurality of classes having a predetermined width of standard deviation as a unit, and plotting each standard deviation on a coordinate system in which X axis represents the class and Y axis represents the number of the standard deviations existing in each class, an average and half-width calculation step 106 for approximating the resultant graph to a normal distribution, and calculating the average and half-width of the resultant normal distribution, and an activity categorization step 109 for categorizing an ion channel activity based on the resultant average and half-width; and a data displaying section 110, such as CRT, for displaying the ion channel activity. […]

[3] = tested on: neuron prepared from Lymnaea stagnails; assay: Conventional intracellular recording of a neuron before and after glutamate, same signal processing (Example 2, FIG. 8); settings: after application of glutamate, before application 0.181
From the text: The curve to the left in FIG. 8 is a histogram of standard deviation values every 5 milliseconds before application of glutamate. The curve to the right in FIG. 8 is a histogram of standard deviation values every 5 milliseconds after the application of glutamate. As indicated in these figures, the averages and half-widths of graphs obtained by approximating the histograms, before and after the application of glutamate, to normal distributions are 0.181 and 0.041, respectively, before the application and 0.534 and 0.204, respectively, after the application. Comparing between the results of FIGS. 7 and 8, the result of the extracellular recording method is similar to that of the intracellular recording method.

[4] = tested on: neuron prepared from Lymnaea stagnails
[5] = tested on: Smooth muscle cells derived from rat aorta vessels; assay: Potential changes of smooth muscle cells on a semiconductor substrate stimulated with norepinephrine (Example 7); settings: 10 μM norepinephrine; potential changes measured for 60 seconds; FIG. 15
Description: Smooth muscle cells derived from rat aorta vessels were cultured on a specially treated semiconductor substrate.
The semiconductor substrate has 100 through holes, each of which has a diameter of 5 μm with the pitch of the through holes being 30 μm, in an area of 1 mm^2. A surface of the semiconductor substrate was coated with 0.01% (w/v) collagen type I solution (Sigma C8919) at a density of 10 μg/cm^2, which was in turn allowed to react at 37° C. for 30 minutes, followed by air drying. Smooth muscle cells derived from rat aorta vessels were cultured on the substrate cleansed with sterilized water. After three days of the culture, the following experiment was conducted.
When measuring ion channel activity, the vessel smooth muscle cells were suctioned by applying a predetermined pressure from the rear side of the semiconductor substrate so that the cells were made to contact the semiconductor substrate. […] In an experimental system, the smooth muscle cells were stimulated with 10 μM norepinephrine, and potential changes were measured for 60 seconds. […] Note that the collection of time-series data was started 10 milliseconds after the start of the experiment, so that measured data was not extracted for the time lag. Thereafter, standard deviations were calculated every 100 milliseconds from the time-series data, thereby clearly extracting ion channel activities due to the stimulant. […]

SMILES | average of the standard deviations (ion channel activity) [1] | average of normal distribution of standard deviation values every 5 milliseconds [2] | average of normal distribution of standard deviation values every 5 milliseconds [3] | average of the distribution of standard deviation values every 5 milliseconds [4] | average of the normal distribution of standard deviations every 100 milliseconds (ion channel activities) [5]
N[C@@H](CCC(=O)O)C(=O)O [glutamate] | dependent on glutamate concentration | 0.733 | 0.534 | shifted toward the right along the horizontal axis | –
NC1=N[C@H](O)[C@H]2[C@H]3O[C@]4(O)O[C@@H]([C@@H](O)[C@@]2(N1)[C@@H]4O)[C@]3(O)CO [TTX, tetrodotoxin] | – | – | – | shifted along the horizontal axis toward the left further than the control | –
NC[C@H](O)c1ccc(O)c(O)c1 [norepinephrine] | – | – | – | – | clearly shifted toward higher class values than when no drug was applied
